According to patent publication US10800791B2, “Triazole ACC inhibitors and uses thereof” (Gilead Apollo, LLC, priority 2015, dated 2020):
Converted amounts (≈) assume the structure as drawn. Where two headings read alike, the source gives them in different places.

How the values were obtained:
Diplodia maydis (Dm) = test: Growth inhibition assay of fungal pathogens, Dm; assay type: cell-based; conditions: Stenocarpella maydis, 48 h
In short: (§1)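 Spores from sub-cultured plates were diluted in 17% V8 liquid medium and exposed to compound from DMSO stocks at final concentrations of 50, 10 and 2 ppm or 2, 0.4 and 0.08 ppm. OD600 and visual ratings at 48 h were compared with the 2% DMSO control to give percent growth inhibition.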

C. albicans = test: Antifungal Activity Assay (broth microtiter MIC), C. albicans; assay type: cell-based, Candida albicans; conditions: Candida albicans, ATCC90028, 48 h
In short: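 Susceptibility was determined by CLSI M27-A3 broth microdilution in RPMI 1640 buffered with MOPS. Growth inhibition was scored visually after 48 h.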

[1] = system: Collectotrichum graminicola (Cg); test: Growth inhibition assay of fungal pathogens, Cg; assay type: cell-based; conditions: 48 h
In short: as §1

[2] = Diplodia maydis, growth inhibition at 48 hours vs 2% DMSO control, read-out: Concentration at 90% Inhibition Dm
[3] = Diplodia maydis, growth inhibition vs 2% DMSO control at 48 hours, read-out: Concentration at 90% Inhibition Dm
[4] = Table 3a, ATCC 90028, 3 replicates, MIC recorded at 48 h, read-out: MIC, C. albicans ATCC 90028
[5] = Table 3b (additional results), ATCC 90028, 3 replicates, MIC recorded at 48 h, read-out: MIC, C. albicans ATCC 90028
[6] = Collectotrichum graminicola, growth inhibition at 48 hours vs 2% DMSO control, read-out: Concentration at 90% Inhibition Cg
[7] = Collectotrichum graminicola, growth inhibition vs 2% DMSO control at 48 hours, read-out: Concentration at 90% Inhibition Cg
[8] = read-out: Concentration at 90% Inhibition Dm, Diplodia maydis, growth inhibition at 48 hours vs 2% DMSO control
[9] = read-out: Concentration at 90% Inhibition Dm, Diplodia maydis, growth inhibition vs 2% DMSO control at 48 hours
[10] = read-out: MIC, C. albicans ATCC 90028, Table 3a, 3 replicates, MIC recorded at 48 h
[11] = read-out: MIC, C. albicans ATCC 90028, Table 3b (additional results), 3 replicates, MIC recorded at 48 h
[12] = read-out: Concentration at 90% Inhibition Cg, Collectotrichum graminicola, growth inhibition at 48 hours vs 2% DMSO control
[13] = read-out: Concentration at 90% Inhibition Cg, Collectotrichum graminicola, growth inhibition vs 2% DMSO control at 48 hours

Row | SMILES | IC90 (Diplodia maydis (Dm); [2]) [µg/mL] | IC90 (Diplodia maydis (Dm); [3]) [µg/mL] | MIC (C. albicans; [4]) [µg/mL] | MIC (C. albicans; [5]) [µg/mL] | IC90 [1, 6] [µg/mL] | IC90 [1, 7] [µg/mL] | IC90 (Diplodia maydis (Dm); [8]) [µg/mL] | IC90 (Diplodia maydis (Dm); [9]) [µg/mL] | MIC (C. albicans; [10]) [µg/mL] | MIC (C. albicans; [11]) [µg/mL] | IC90 [1, 12] [µg/mL] | IC90 [1, 13] [µg/mL]
1 | COc1ccc(F)cc1[C@H](Cn1c(=O)n(C(C)(C)C(N)=O)c(=O)c2c(C)c(-n3nccn3)sc21)OC1CCOCC1 [Compound I-1] | 2 (≈ 3.41 µM) | 2 (≈ 3.41 µM) | 0.25 to 1 (≈ 0.426 to 1.7 µM) | 0.25 to 1 (≈ 0.426 to 1.7 µM) | 2 (≈ 3.41 µM) | 2 (≈ 3.41 µM) |  |  |  |  |  | 
2 | COc1ccc(F)cc1[C@H](Cn1c(=O)n(C(C)(C)C(N)=O)c(=O)c2c(C)c(-n3nccn3)sc21)OC(C)C [Compound I-2, (R)-2-(1-(2-(5-fluoro-2-methoxyphenyl)-2-isopropoxyethyl)-5-methyl-2,4-dioxo-6-(2H-1,2,3-triazol-2-yl)-1,4-dihydrothieno[2,3-d]pyrimidin-3(2H)-yl)-2-methylpropanamide] | 2 (≈ 3.67 µM) | 2 (≈ 3.67 µM) | 2.1 to 4 (≈ 3.86 to 7.34 µM) | 1.01 to 2 (≈ 1.85 to 3.67 µM) | 2 (≈ 3.67 µM) | 2 (≈ 3.67 µM) |  |  |  |  |  | 
3 | CCNC(=O)C(C)(C)n1c(=O)c2c(C)c(-n3nccn3)sc2n(C[C@H](OC(C)C)c2cc(F)ccc2OC)c1=O [Compound I-3, (R)—N-ethyl-2-(1-(2-(5-fluoro-2-methoxyphenyl)-2-isopropoxyethyl)-5-methyl-2,4-dioxo-6-(2H-1,2,3-triazol-2-yl)-1,4-dihydrothieno[2,3-d]pyrimidin-3(2H)-yl)-2-methylpropanamide] |  |  |  |  |  |  | 0.4 (≈ 0.698 µM) | 0.4 (≈ 0.698 µM) | 1.1 to 2 (≈ 1.92 to 3.49 µM) | 1.01 to 2 (≈ 1.76 to 3.49 µM) | 0.4 (≈ 0.698 µM) | 0.4 (≈ 0.698 µM)
4 | COc1ccc(F)cc1[C@H](Cn1c(=O)n(C(C)(C)C(=O)NC(C)C)c(=O)c2c(C)c(-n3nccn3)sc21)OC(C)C [Compound I-4, (R)-2-(1-(2-(5-fluoro-2-methoxyphenyl)-2-isopropoxyethyl)-5-methyl-2,4-dioxo-6-(2H-1,2,3-triazol-2-yl)-1,4-dihydrothieno[2,3-d]pyrimidin-3(2H)-yl)-N-isopropyl-2-methylpropanamide] |  |  |  |  |  |  | 0.08 (≈ 0.136 µM) | 0.08 (≈ 0.136 µM) | 0.25 to 1 (≈ 0.426 to 1.7 µM) | 0.25 to 1 (≈ 0.426 to 1.7 µM) | 0.08 (≈ 0.136 µM) | 0.08 (≈ 0.136 µM)
5 | COc1ccc(F)cc1[C@H](Cn1c(=O)n(C(C)(C)C(=O)N2CCOCC2)c(=O)c2c(C)c(-n3nccn3)sc21)OC(C)C [Compound I-5, (R)-1-(2-(5-fluoro-2-methoxyphenyl)-2-isopropoxyethyl)-5-methyl-3-(2-methyl-1-morpholino-1-oxopropan-2-yl)-6-(2H-1,2,3-triazol-2-yl)thieno[2,3-d]pyrimidine-2,4(1H,3H)-dione] |  |  |  |  |  |  | 2 (≈ 3.25 µM) | 2 (≈ 3.25 µM) | 2.1 to 4 (≈ 3.42 to 6.51 µM) | 2.01 to 4 (≈ 3.27 to 6.51 µM) | 2 (≈ 3.25 µM) | 2 (≈ 3.25 µM)
6 | COc1ccc(F)cc1[C@H](Cn1c(=O)n(C(C)(C)C(=O)N2CCCCC2)c(=O)c2c(C)c(-n3nccn3)sc21)OC(C)C [Compound I-6, (R)-1-(2-(5-fluoro-2-methoxyphenyl)-2-isopropoxyethyl)-5-methyl-3-(2-methyl-1-oxo-1-(piperidin-1-yl)propan-2-yl)-6-(2H-1,2,3-triazol-2-yl)thieno[2,3-d]pyrimidine-2,4(1H,3H)-dione] |  |  |  |  |  |  | 0.08 (≈ 0.131 µM) | 0.08 (≈ 0.131 µM) | 0.25 to 1 (≈ 0.408 to 1.63 µM) | 0.25 to 1 (≈ 0.408 to 1.63 µM) | 0.08 (≈ 0.131 µM) | 0.08 (≈ 0.131 µM)
7 | COc1ccc(F)cc1[C@H](Cn1c(=O)n(C(C)(C)C(=O)N2CCCC2)c(=O)c2c(C)c(-n3nccn3)sc21)OC(C)C [Compound I-7, (R)-1-(2-(5-fluoro-2-methoxyphenyl)-2-isopropoxyethyl)-5-methyl-3-(2-methyl-1-oxo-1-(pyrrolidin-1-yl)propan-2-yl)-6-(2H-1,2,3-triazol-2-yl)thieno[2,3-d]pyrimidine-2,4(1H,3H)-dione] | 0.08 (≈ 0.134 µM) | 0.08 (≈ 0.134 µM) | 1.1 to 2 (≈ 1.84 to 3.34 µM) | 0.25 to 1 (≈ 0.418 to 1.67 µM) | 0.08 (≈ 0.134 µM) | 0.08 (≈ 0.134 µM) |  |  |  |  |  | 
8 | COc1ccc(F)cc1[C@H](Cn1c(=O)n(C(C)(C)C(N)=O)c(=O)c2c(C)c(-n3nccn3)sc21)OCC(C)C [Compound I-8, (R)-2-(1-(2-(5-fluoro-2-methoxyphenyl)-2-isobutoxyethyl)-5-methyl-2,4-dioxo-6-(2H-1,2,3-triazol-2-yl)-1,4-dihydrothieno[2,3-d]pyrimidin-3(2H)-yl)-2-methylpropanamide] | 2 (≈ 3.58 µM) | 2 (≈ 3.58 µM) | 1.1 to 2 (≈ 1.97 to 3.58 µM) | 1.01 to 2 (≈ 1.81 to 3.58 µM) | 2 (≈ 3.58 µM) | 2 (≈ 3.58 µM) |  |  |  |  |  | 
9 | CCNC(=O)C(C)(C)n1c(=O)c2c(C)c(-n3nccn3)sc2n(C[C@H](OCC(C)C)c2cc(F)ccc2OC)c1=O [Compound I-9, (R)—N-ethyl-2-(1-(2-(5-fluoro-2-methoxyphenyl)-2-isobutoxyethyl)-5-methyl-2,4-dioxo-6-(2H-1,2,3-triazol-2-yl)-1,4-dihydrothieno[2,3-d]pyrimidin-3(2H)-yl)-2-methylpropanamide] | 0.4 (≈ 0.682 µM) | 0.4 (≈ 0.682 µM) | 2.1 to 4 (≈ 3.58 to 6.82 µM) | 1.01 to 2 (≈ 1.72 to 3.41 µM) | 0.4 (≈ 0.682 µM) | 0.4 (≈ 0.682 µM) |  |  |  |  |  | 
10 | COc1ccc(F)cc1[C@H](Cn1c(=O)n(C(C)(C)C(=O)N2CCCCC2)c(=O)c2c(C)c(-n3nccn3)sc21)OCC(C)C [Compound I-11, (R)-1-(2-(5-fluoro-2-methoxyphenyl)-2-isobutoxyethyl)-5-methyl-3-(2-methyl-1-oxo-1-(piperidin-1-yl)propan-2-yl)-6-(2H-1,2,3-triazol-2-yl)thieno[2,3-d]pyrimidine-2,4(1H,3H)-dione] |  |  |  |  |  |  | 0.4 (≈ 0.638 µM) | 0.4 (≈ 0.638 µM) | 1.1 to 2 (≈ 1.76 to 3.19 µM) | 0.25 to 1 (≈ 0.399 to 1.6 µM) | 0.4 (≈ 0.638 µM) | 0.4 (≈ 0.638 µM)
11 | COc1ccc(F)cc1[C@H](Cn1c(=O)n(C(C)(C)C(=O)N2CCCC2)c(=O)c2c(C)c(-n3nccn3)sc21)OCC(C)C [Compound I-12, (R)-1-(2-(5-fluoro-2-methoxyphenyl)-2-isobutoxyethyl)-5-methyl-3-(2-methyl-1-oxo-1-(pyrrolidin-1-yl)propan-2-yl)-6-(2H-1,2,3-triazol-2-yl)thieno[2,3-d]pyrimidine-2,4(1H,3H)-dione] | 0.08 (≈ 0.131 µM) | 0.08 (≈ 0.131 µM) | 1.1 to 2 (≈ 1.8 to 3.26 µM) | 0.25 to 1 (≈ 0.408 to 1.63 µM) | 0.08 (≈ 0.131 µM) | 0.08 (≈ 0.131 µM) |  |  |  |  |  | 
12 | COc1ccccc1[C@H](Cn1c(=O)n(C(C)(C)C(N)=O)c(=O)c2c(C)c(-n3nccn3)sc21)OC1CCOCC1 [Compound I-14, (R)-2-(1-(2-(2-methoxyphenyl)-2-((tetrahydro-2H-pyran-4-yl)oxy)ethyl)-5-methyl-2,4-dioxo-6-(2H-1,2,3-triazol-2-yl)-1,4-dihydrothieno[2,3-d]pyrimidin-3(2H)-yl)-2-methylpropanamide] | 10 (≈ 17.6 µM) | > 50 | 0.25 to 1 (≈ 0.44 to 1.76 µM) | 0.25 to 1 (≈ 0.44 to 1.76 µM) | 10 (≈ 17.6 µM) | > 50 |  |  |  |  |  | 
13 | CCNC(=O)C(C)(C)n1c(=O)c2c(C)c(-n3nccn3)sc2n(C[C@H](OC2CCOCC2)c2ccccc2OC)c1=O [Compound I-15, (R)—N-ethyl-2-(1-(2-(2-methoxyphenyl)-2-((tetrahydro-2H-pyran-4-yl)oxy)ethyl)-5-methyl-2,4-dioxo-6-(2H-1,2,3-triazol-2-yl)-1,4-dihydro-thieno[2,3-d]pyrimidin-3(2H)-yl)-2-methylpropanamide] | 10 (≈ 16.8 µM) | > 50 | 0.25 to 1 (≈ 0.419 to 1.68 µM) | 0.25 to 1 (≈ 0.419 to 1.68 µM) | 2 (≈ 3.35 µM) | 10 (≈ 16.8 µM) |  |  |  |  |  | 
14 | COc1ccccc1[C@H](Cn1c(=O)n(C(C)(C)C(=O)N2CC(O)C2)c(=O)c2c(C)c(-n3nccn3)sc21)OC1CCOCC1 [Compound I-19, (R)-3-(1-(3-hydroxyazetidin-1-yl)-2-methyl-1-oxopropan-2-yl)-1-(2-(2-methoxyphenyl)-2-((tetrahydro-2H-pyran-4-yl)oxy)ethyl)-5-methyl-6-(2H-1,2,3-triazol-2-yl)thieno[2,3-d]pyrimidine-2,4(1H,3H)-dione] |  |  |  |  |  |  | > 50 | > 50 | 2.1 to 4 (≈ 3.36 to 6.4 µM) | 1.01 to 2 (≈ 1.62 to 3.2 µM) | > 50 | > 50
15 | COc1ccc(F)cc1[C@H](Cn1c(=O)n(C(C)(C)C(=O)N2CCCCC2)c(=O)c2c(C)c(-n3nccn3)sc21)OC1CCOCC1 [Compound I-24, (R)-1-(2-(5-fluoro-2-methoxyphenyl)-2-((tetrahydro-2H-pyran-4-yl)oxy)ethyl)-5-methyl-3-(2-methyl-1-oxo-1-(piperidin-1-yl)propan-2-yl)-6-(2H-1,2,3-triazol-2-yl)thieno[2,3-d]pyrimidine-2,4(1H,3H)-dione] |  |  |  |  |  |  | 0.08 (≈ 0.122 µM) | 0.08 (≈ 0.122 µM) | 0.25 to 1 (≈ 0.382 to 1.53 µM) | 0.25 to 1 (≈ 0.382 to 1.53 µM) | 0.08 (≈ 0.122 µM) | 0.08 (≈ 0.122 µM)
